Laboratory results from the supplement of paper PMC13380429.

Columns and labels:
[1] = tested on: A549-ACE2 infected with SARS-CoV-2; test: cell count relative to DMSO; higher = less toxic; details: 24 h
Caco-2 [2] = test: cell viability relative to DMSO; higher = less toxic; details: 72 h
Calu-3 [3] = test: as above; details: 72 h
HepG2 [4] = test: as above; details: 72 h
Vero E6 [5] = test: as above; details: 72 h
[6] = tested on: A549-ACE2 infected with SARS-CoV-2; test: SARS-CoV-2 infection rate relative to DMSO; higher = more infection; details: 24 h
A549-ACE2 [7] = test: phospholipidosis EC50; higher = less potent phospholipidosis inducer
A549-ACE2 [8] = test: drug-induced phospholipidosis relative to tamoxifen; higher = more phospholipidosis
[9] = tested on: A549-ACE2 infected with SARS-CoV-2; test: morphology score (similarity to uninfected cells); higher = more like uninfected cells; details: 24 h
Caco-2 [10] = test: relative viability EC50 (midpoint between 100% and the lowest measured viability); higher = less toxic; details: 72 h
Calu-3 [11] = test: as above; details: 72 h
HepG2 [12] = test: as above; details: 72 h
Vero E6 [13] = test: as above; details: 72 h
Caco-2 [14] = test: drug sensitivity score (DSS) for viability; higher = more toxic; extreme values may be limits of the assay; details: 72 h
Calu-3 [15] = test: as above; details: 72 h
HepG2 [16] = test: as above; details: 72 h
Vero E6 [17] = test: as above; details: 72 h
U2OS [18] = test: cell viability relative to DMSO; higher = less toxic; details: 72 h
U2OS [19] = test: relative viability EC50 (midpoint between 100% and the lowest measured viability); higher = less toxic; details: 72 h
U2OS [20] = test: drug sensitivity score (DSS) for viability; higher = more toxic; extreme values may be limits of the assay; details: 72 h

CNCC[C@H](Oc1cccc2ccccc12)c1cccs1 [duloxetine]
cell count ([1]; 0.3 µM): 101% | cell count ([1]; 3 µM): 100% | cell count ([1]; 10 µM): 119% | cell count ([1]; 30 µM): 119% | cell viability (Caco-2 [2]; 1 nM): 110% | cell viability (Caco-2 [2]; 10 nM): 100% | cell viability (Caco-2 [2]; 100 nM): 97.7% | cell viability (Caco-2 [2]; 1000 nM): 111% | cell viability (Caco-2 [2]; 10000 nM): 95.9% | cell viability (Calu-3 [3]; 1 nM): 103% | cell viability (Calu-3 [3]; 10 nM): 97.1% | cell viability (Calu-3 [3]; 100 nM): 92.4% | cell viability (Calu-3 [3]; 1000 nM): 90.9% | cell viability (Calu-3 [3]; 10000 nM): 78.8% | cell viability (HepG2 [4]; 1 nM): 96% | cell viability (HepG2 [4]; 10 nM): 102% | cell viability (HepG2 [4]; 100 nM): 99.4% | cell viability (HepG2 [4]; 1000 nM): 101% | cell viability (HepG2 [4]; 10000 nM): 88.2% | cell viability (Vero E6 [5]; 1 nM): 106% | cell viability (Vero E6 [5]; 10 nM): 100% | cell viability (Vero E6 [5]; 100 nM): 101% | cell viability (Vero E6 [5]; 1000 nM): 93.7% | cell viability (Vero E6 [5]; 10000 nM): 91% | SARS-CoV-2 infection rate ([6]; 0.3 µM): 104% | SARS-CoV-2 infection rate ([6]; 3 µM): 94% | SARS-CoV-2 infection rate ([6]; 10 µM): 37% | SARS-CoV-2 infection rate ([6]; 30 µM): 9% | phospholipidosis EC50 (A549-ACE2 [7]; 24 h): 9.15 µM | phospholipidosis EC50 (A549-ACE2 [7]; 48 h): 9.16 µM | phospholipidosis EC50 (A549-ACE2 [7]; 72 h): 15.6 µM | drug-induced phospholipidosis (A549-ACE2 [8]; 0.3 µM, 24 h): 3.9% | drug-induced phospholipidosis (A549-ACE2 [8]; 0.3 µM, 48 h): 2.99% | drug-induced phospholipidosis (A549-ACE2 [8]; 0.3 µM, 72 h): 5.95% | drug-induced phospholipidosis (A549-ACE2 [8]; 0.833333 µM, 24 h): 1.59% | drug-induced phospholipidosis (A549-ACE2 [8]; 0.833333 µM, 48 h): -2.35% | drug-induced phospholipidosis (A549-ACE2 [8]; 0.833333 µM, 72 h): 2.92% | drug-induced phospholipidosis (A549-ACE2 [8]; 3.33333 µM, 24 h): 17.6% | drug-induced phospholipidosis (A549-ACE2 [8]; 3.33333 µM, 48 h): 15.6% | drug-induced phospholipidosis (A549-ACE2 [8]; 3.33333 µM, 72 h): 12.5% | drug-induced phospholipidosis (A549-ACE2 [8]; 6.66667 µM, 24 h): 53.6% | drug-induced phospholipidosis (A549-ACE2 [8]; 6.66667 µM, 48 h): 55.1% | drug-induced phospholipidosis (A549-ACE2 [8]; 6.66667 µM, 72 h): 44.6% | drug-induced phospholipidosis (A549-ACE2 [8]; 10 µM, 24 h): 65.6% | drug-induced phospholipidosis (A549-ACE2 [8]; 10 µM, 48 h): 61.6% | drug-induced phospholipidosis (A549-ACE2 [8]; 10 µM, 72 h): 51.8% | drug-induced phospholipidosis (A549-ACE2 [8]; 30 µM, 24 h): 111% | drug-induced phospholipidosis (A549-ACE2 [8]; 30 µM, 48 h): 109% | drug-induced phospholipidosis (A549-ACE2 [8]; 30 µM, 72 h): 110% | morphology score ([9]; 0.3 µM): 0.09 | morphology score ([9]; 3 µM): 0.1 | morphology score ([9]; 10 µM): 0.8 | morphology score ([9]; 30 µM): 0.78 | relative viability EC50 (Caco-2 [10]): > 10 µM | relative viability EC50 (Calu-3 [11]): > 10 µM | relative viability EC50 (HepG2 [12]): > 10 µM | relative viability EC50 (Vero E6 [13]): > 10 µM | drug sensitivity score (Caco-2 [14]): 0 | drug sensitivity score (Calu-3 [15]): 1.3 | drug sensitivity score (HepG2 [16]): 0 | drug sensitivity score (Vero E6 [17]): 0

CC(NCCC(c1ccccc1)c1ccccc1)c1ccccc1 (stereo not given) [fendiline]
cell count ([1]; 0.3 µM): 98% | cell count ([1]; 3 µM): 110% | cell count ([1]; 10 µM): 119% | cell count ([1]; 30 µM): 43% | cell viability (Caco-2 [2]; 1 nM): 97.6% | cell viability (Caco-2 [2]; 10 nM): 99.8% | cell viability (Caco-2 [2]; 100 nM): 93.9% | cell viability (Caco-2 [2]; 1000 nM): 98.1% | cell viability (Caco-2 [2]; 10000 nM): 67.6% | cell viability (Calu-3 [3]; 1 nM): 91.6% | cell viability (Calu-3 [3]; 10 nM): 96.3% | cell viability (Calu-3 [3]; 100 nM): 103% | cell viability (Calu-3 [3]; 1000 nM): 102% | cell viability (Calu-3 [3]; 10000 nM): 46.7% | cell viability (HepG2 [4]; 1 nM): 110% | cell viability (HepG2 [4]; 10 nM): 97.8% | cell viability (HepG2 [4]; 100 nM): 102% | cell viability (HepG2 [4]; 1000 nM): 94.2% | cell viability (HepG2 [4]; 10000 nM): 70.1% | cell viability (U2OS [18]; 1 nM): 99.2% | cell viability (U2OS [18]; 10 nM): 106% | cell viability (U2OS [18]; 100 nM): 93.1% | cell viability (U2OS [18]; 1000 nM): 99.6% | cell viability (U2OS [18]; 10000 nM): 84.2% | cell viability (Vero E6 [5]; 1 nM): 96.5% | cell viability (Vero E6 [5]; 10 nM): 98.6% | cell viability (Vero E6 [5]; 100 nM): 97.5% | cell viability (Vero E6 [5]; 1000 nM): 99.4% | cell viability (Vero E6 [5]; 10000 nM): 88.9% | SARS-CoV-2 infection rate ([6]; 0.3 µM): 100% | SARS-CoV-2 infection rate ([6]; 3 µM): 47% | SARS-CoV-2 infection rate ([6]; 10 µM): 13% | SARS-CoV-2 infection rate ([6]; 30 µM): 45% | phospholipidosis EC50 (A549-ACE2 [7]; 24 h): 4.59 µM | phospholipidosis EC50 (A549-ACE2 [7]; 48 h): 6.53 µM | phospholipidosis EC50 (A549-ACE2 [7]; 72 h): 6.61 µM | drug-induced phospholipidosis (A549-ACE2 [8]; 0.3 µM, 24 h): 3.14% | drug-induced phospholipidosis (A549-ACE2 [8]; 0.3 µM, 48 h): 2.47% | drug-induced phospholipidosis (A549-ACE2 [8]; 0.3 µM, 72 h): 1.95% | drug-induced phospholipidosis (A549-ACE2 [8]; 0.833333 µM, 24 h): 1.17% | drug-induced phospholipidosis (A549-ACE2 [8]; 0.833333 µM, 48 h): 2.24% | drug-induced phospholipidosis (A549-ACE2 [8]; 0.833333 µM, 72 h): -3.79% | drug-induced phospholipidosis (A549-ACE2 [8]; 3.33333 µM, 24 h): 27.5% | drug-induced phospholipidosis (A549-ACE2 [8]; 3.33333 µM, 48 h): 19.7% | drug-induced phospholipidosis (A549-ACE2 [8]; 3.33333 µM, 72 h): 18.1% | drug-induced phospholipidosis (A549-ACE2 [8]; 6.66667 µM, 24 h): 62.8% | drug-induced phospholipidosis (A549-ACE2 [8]; 6.66667 µM, 48 h): 62.3% | drug-induced phospholipidosis (A549-ACE2 [8]; 6.66667 µM, 72 h): 60.3% | drug-induced phospholipidosis (A549-ACE2 [8]; 10 µM, 24 h): 85% | drug-induced phospholipidosis (A549-ACE2 [8]; 10 µM, 48 h): 88.8% | drug-induced phospholipidosis (A549-ACE2 [8]; 10 µM, 72 h): 87.3% | drug-induced phospholipidosis (A549-ACE2 [8]; 30 µM, 24 h): 85.8% | morphology score ([9]; 0.3 µM): -0.14 | morphology score ([9]; 3 µM): 0.77 | morphology score ([9]; 10 µM): 0.9 | morphology score ([9]; 30 µM): 0.08 | relative viability EC50 (Calu-3 [11]): 3.42 µM | relative viability EC50 (U2OS [19]): > 10 µM | relative viability EC50 (Vero E6 [13]): > 10 µM | drug sensitivity score (Caco-2 [14]): 1.7 | drug sensitivity score (Calu-3 [15]): 2.6 | drug sensitivity score (HepG2 [16]): 2.2 | drug sensitivity score (U2OS [20]): 0.3 | drug sensitivity score (Vero E6 [17]): 0
